# Reference: patent US20100298141A1, “SUBSTITUTED PYRIDINE N-OXIDE HERBICIDES” (E. I. DU PONT DE NEMOURS AND COMPANY, priority 2007, published 2010)
# Tests used:
# barnyardgrass = assay: Test C flooded paddy test; type: in vivo, Echinochloa crus-galli; conditions: Flood
# Procedure, shortened: (§1)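 Ratings were visual and made relative to untreated controls after 13 to 15 greenhouse days.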
# wheat [1] = assay: Test C pre-/postemergence test; type: in vivo, Triticum aestivum; conditions: Postemergence; for Plant response rating, Wheat: scale 0 to 100, 0 no effect, 100 complete control
# Description: (§2) Seeds of plant species selected from blackgrass (Alopecurus myosuroides), downy brome (Bromus tectorum), green foxtail (Setaria viridis), Italian ryegrass (Lolium multiflorum), wheat (Triticum aestivum), wild oat (Avena fatua), catchweed bedstraw (Galium aparine), Russian thistle (Salsola kali), […] (Cynodon dactylon), Surinam grass (Brachiaria decumbens), cocklebur (Xanthium strumarium), corn (Zea mays), crabgrass (Digitaria sanguinalis), woolly cupgrass (Eriochloa villosa), giant foxtail (Setaria faberii), Goosegrass (Eleusin indica), johnsongrass (Sorghum halepense), kochia (Kochia scoparia), lambsquarters (Chenopodium album), morningglory (Ipomoea coccinea), eastern black nightshade (Solanum ptycanthum), yellow nutsedge (Cyperus esculentus), pigweed (Amaranthus retroflexus), common ragweed (Ambrosia elation), soybean (Glycine max), common (oilseed) sunflower (Helianthus annuus), and velvetleaf (Abutilon theophrasti) were planted and treated preemergence with test chemicals formulated in a non-phytotoxic solvent mixture which included a surfactant. At the same time, plants selected from these crop and weed species and also winter barley (Hordeum vulgare), canarygrass (Phalaris minor), and chickweed (Stellaria media) were treated with postemergence applications of some of the test chemicals formulated in the same manner. Plants ranged in height from 2 to 18 cm (1- to 4-leaf stage) for postemergence treatments. […] At time of treatment, test pots were flooded to 3 cm above the soil surface, treated by application of test compounds directly to the paddy water, and then maintained at that water depth for the duration of the test. […] A dash (-) response means no test result.
# morningglory [2] = assay: Test C pre-/postemergence test; type: in vivo, Ipomoea coccinea; conditions: Postemergence; for Plant response rating, Morningglory: scale 0 to 100, 0 no effect, 100 complete control
# Description: as §2
# giant foxtail = assay: Test A pre-/postemergence greenhouse test; type: in vivo, Setaria faberi; conditions: for Foxtail, Giant plant response rating: 0 to 100 scale
# Procedure, shortened: (§3)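 Two application timings were run side by side in the greenhouse. Before emergence, compound went onto the soil surface of loam–sand pots as a directed spray; after emergence, plants at 2–10 cm and the one- to two-leaf stage were treated. Visual injury versus controls was rated at approximately day ten.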
# corn = assay: Test A pre-/postemergence greenhouse test; type: in vivo, Zea mays; conditions: for Corn plant response rating: 0 to 100 scale
# Procedure, shortened: as §3
# soybean = assay: Test C pre-/postemergence test; type: in vivo, Glycine max; conditions: Postemergence; for Plant response rating, Soybean: scale 0 to 100, 0 no effect, 100 complete control
# Description: as §2
# Italian ryegrass = assay: Test C pre-/postemergence test; type: in vivo, Lolium multiflorum; conditions: Postemergence; for Plant response rating, Ryegrass, Italian: scale 0 to 100, 0 no effect, 100 complete control
# Description: as §2
# morningglory [3] = assay: Test A pre-/postemergence greenhouse test; type: in vivo, Ipomoea spp.; conditions: for Morningglory plant response rating: 0 to 100 scale
# Procedure, shortened: as §3
# crabgrass = assay: Test A pre-/postemergence greenhouse test; type: in vivo, Digitaria sanguinalis; conditions: for Crabgrass, Large plant response rating: 0 to 100 scale
# Procedure, shortened: as §3
# bermudagrass = assay: Test C pre-/postemergence test; type: in vivo, Cynodon dactylon; conditions: Postemergence; for Plant response rating, Bermudagrass: scale 0 to 100, 0 no effect, 100 complete control
# Description: as §2
# pigweed = assay: Test C pre-/postemergence test; type: in vivo, Amaranthus retroflexus; conditions: Postemergence; for Plant response rating, Pigweed: scale 0 to 100, 0 no effect, 100 complete control
# Description: as §2
# Goosegrass = assay: Test C pre-/postemergence test; type: in vivo, Eleusin indica; conditions: Postemergence; for Plant response rating, Goosegrass: scale 0 to 100, 0 no effect, 100 complete control
# Description: as §2
# yellow nutsedge = assay: Test C pre-/postemergence test; type: in vivo, Cyperus esculentus; conditions: Postemergence; for Plant response rating, Nutsedge, Yellow: scale 0 to 100, 0 no effect, 100 complete control
# Description: as §2
# wheat [4] = assay: Test A pre-/postemergence greenhouse test; type: in vivo, Triticum aestivum; conditions: for Wheat plant response rating: 0 to 100 scale
# Procedure, shortened: as §3
# umbrella sedge = assay: Test C flooded paddy test; type: in vivo, Cyperus difformis; conditions: Flood
# Procedure, shortened: as §1
# [5] = 31 g ai/ha, scale 0 to 100 (0 no effect, 100 complete control)
# [6] = 62 g ai/ha, scale 0 to 100, 0 no effect, 100 complete control, 13 to 15 days
# [7] = 125 g ai/ha, scale 0 to 100, 0 no effect, 100 complete control, 13 to 15 days
# [8] = 250 g ai/ha, scale 0 to 100, 0 no effect, 100 complete control, 13 to 15 days
# [9] = Postemergence, 125 g ai/ha, 0 is no effect, 100 is complete control
# [10] = Postemergence, 500 g ai/ha, 0 is no effect, 100 is complete control
# [11] = Preemergence, 125 g ai/ha, 0 no effect, 100 complete control
# [12] = Preemergence, 500 g ai/ha, 0 to 100 scale where 0 is no effect and 100 is complete control
smiles,measurement,setting,value
CC(c1c(C(F)(F)F)nn(C)c1Cl)S(=O)(=O)c1ccc(Cl)c[n+]1[O-] (racemic) [Compound 40],"Plant response rating, Barnyardgrass",barnyardgrass; [5],0
same,"Plant response rating, Barnyardgrass",barnyardgrass; [6],15
same,"Plant response rating, Barnyardgrass",barnyardgrass; [7],60
same,"Plant response rating, Barnyardgrass",barnyardgrass; [8],65
same,"Plant response rating (0 to 100), Wheat",wheat [1]; 31 g ai/ha,0
same,"Plant response rating (0 to 100), Wheat",wheat [1]; 62 g ai/ha,0
same,"Plant response rating, Wheat",wheat [1]; 125 g ai/ha,0
same,"Plant response rating, Wheat",wheat [1]; 250 g ai/ha,5
same,"Plant response rating (0 to 100), Morningglory",morningglory [2]; 31 g ai/ha,0
same,"Plant response rating, Morningglory",morningglory [2]; 62 g ai/ha,0
same,"Plant response rating, Morningglory",morningglory [2]; 125 g ai/ha,0
same,"Plant response rating, Morningglory",morningglory [2]; 250 g ai/ha,0
same,"Foxtail, Giant plant response rating",giant foxtail; [9],80
same,"Foxtail, Giant plant response rating",giant foxtail; [10],90
same,"Foxtail, Giant plant response rating",giant foxtail; [11],90
same,"Plant response rating, Foxtail, Giant",giant foxtail; [12],100
same,Corn plant response rating,corn; [9],0
same,Corn plant response rating,corn; [10],40
same,Corn plant response rating,corn; [11],0
same,"Plant response rating, Corn",corn; [12],0
same,"Plant response rating (0 to 100), Soybean",soybean; 31 g ai/ha,0
same,"Plant response rating (0 to 100), Soybean",soybean; 62 g ai/ha,0
same,"Plant response rating, Soybean",soybean; 125 g ai/ha,0
same,"Plant response rating, Soybean",soybean; 250 g ai/ha,0
same,"Plant response rating (0 to 100), Ryegrass, Italian",Italian ryegrass; 31 g ai/ha,0
same,"Plant response rating (0 to 100), Ryegrass, Italian",Italian ryegrass; 62 g ai/ha,0
same,"Plant response rating, Ryegrass, Italian",Italian ryegrass; 125 g ai/ha,40
same,"Plant response rating, Ryegrass, Italian",Italian ryegrass; 250 g ai/ha,45
same,Morningglory plant response rating,morningglory [3]; [9],0
same,Morningglory plant response rating,morningglory [3]; [10],30
same,Morningglory plant response rating,morningglory [3]; [11],0
same,"Plant response rating, Morningglory",morningglory [3]; [12],80
same,"Crabgrass, Large plant response rating",crabgrass; [9],80
same,"Crabgrass, Large plant response rating",crabgrass; [10],80
same,"Crabgrass, Large plant response rating",crabgrass; [11],60
same,"Plant response rating, Crabgrass, Large",crabgrass; [12],90
same,"Plant response rating (0 to 100), Bermudagrass",bermudagrass; 31 g ai/ha,0
same,"Plant response rating, Bermudagrass",bermudagrass; 62 g ai/ha,0
same,"Plant response rating, Bermudagrass",bermudagrass; 125 g ai/ha,10
same,"Plant response rating, Bermudagrass",bermudagrass; 250 g ai/ha,30
same,"Plant response rating (0 to 100), Pigweed",pigweed; 31 g ai/ha,0
same,"Plant response rating (0 to 100), Pigweed",pigweed; 62 g ai/ha,0
same,"Plant response rating, Pigweed",pigweed; 125 g ai/ha,0
same,"Plant response rating, Pigweed",pigweed; 250 g ai/ha,0
same,"Plant response rating (0 to 100), Goosegrass",Goosegrass; 31 g ai/ha,0
same,"Plant response rating, Goosegrass",Goosegrass; 62 g ai/ha,0
same,"Plant response rating, Goosegrass",Goosegrass; 125 g ai/ha,0
same,"Plant response rating, Goosegrass",Goosegrass; 250 g ai/ha,0
same,"Plant response rating (0 to 100), Nutsedge, Yellow",yellow nutsedge; 31 g ai/ha,0
same,"Plant response rating, Nutsedge, Yellow",yellow nutsedge; 62 g ai/ha,0
same,"Plant response rating, Nutsedge, Yellow",yellow nutsedge; 125 g ai/ha,0
same,"Plant response rating, Nutsedge, Yellow",yellow nutsedge; 250 g ai/ha,0
same,Wheat plant response rating,wheat [4]; [9],30
same,Wheat plant response rating,wheat [4]; [10],50
same,Wheat plant response rating,wheat [4]; [11],0
same,"Plant response rating, Wheat",wheat [4]; [12],40
same,"Plant response rating, Sedge, Umbrella",umbrella sedge; [5],20
same,"Plant response rating, Sedge, Umbrella",umbrella sedge; [6],45
same,"Plant response rating, Sedge, Umbrella",umbrella sedge; [7],75
same,"Plant response rating, Sedge, Umbrella",umbrella sedge; [8],85
